Assay results published in ChEMBL document CHEMBL1147675, “Optimization of subsite binding to the beta5 subunit of the human 20S proteasome using vinyl sulfones and 2-keto-1,3,4-oxadiazoles: syntheses and cellular properties of potent, selective proteasome inhibitors” (J Med Chem, 2006).
Values after ≈ are worked out from the molar mass of the structure shown. Peptide text beside a SMILES is read from it. * marks the point of attachment. Cbz = O=C(OCc1ccccc1)*; OtBu = CC(C)(C)O*

How the values were obtained:
[1] = target: Cathepsin B (Homo sapiens, UniProt P07858)
Description: Inhibition of cathepsin B

[2] = target: Cathepsin S (Homo sapiens, UniProt P25774)
Description: Inhibition of cathepsin S

[3] = system: PC-3; test: cells; conditions: Homo sapiens
Description: Antiproliferative activity against human PC3 cell line

[4] = in vitro; conditions: human, plasma
Description: Stability in human plasma after 120 mins

[5] = physchem; conditions: PBS, pH 7.4
Description: Solubility in PBS at pH 7.4

Cathepsin S, sequence (P25774 whole entry): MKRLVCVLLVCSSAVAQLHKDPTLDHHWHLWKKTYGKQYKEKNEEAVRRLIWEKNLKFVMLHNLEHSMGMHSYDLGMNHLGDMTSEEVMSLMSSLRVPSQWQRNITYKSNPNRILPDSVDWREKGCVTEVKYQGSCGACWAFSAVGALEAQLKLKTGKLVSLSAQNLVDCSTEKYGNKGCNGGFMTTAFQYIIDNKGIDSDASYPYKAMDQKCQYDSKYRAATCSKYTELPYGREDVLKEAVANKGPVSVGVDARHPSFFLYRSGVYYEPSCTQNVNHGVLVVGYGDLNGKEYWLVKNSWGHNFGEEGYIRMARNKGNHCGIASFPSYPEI

Row | IC50 [1] [µM] | IC50 [2] [µM] | IC50 [3] [µM] | remaining at 2 h [4] [%] | solubility [5] [µM] | Ki [1] [µM] | Ki [2] [µM] | Compound
1 | > 150 | > 150 | 2.4 | 99 | 381 (≈ 235 µg/mL) |  |  | Cc1ccc(S(=O)(=O)N[C@@H](CC(=O)NCC(C)(C)C)C(=O)N[C@@H](CO)C(=O)N[C@H](/C=C/S(C)(=O)=O)CC(C)C)cc1
2 |  |  | 4 |  |  |  |  | CC(C)C[C@@H](/C=C/S(C)(=O)=O)NC(=O)[C@H](CO)NC(=O)[C@H](CCC(=O)OC(C)(C)C)NS(=O)(=O)c1ccccc1
3 |  |  |  | 100 | 249 (≈ 160 µg/mL) |  |  | Cc1ccc(S(=O)(=O)N[C@@H](CC(=O)NCC(C)(C)C)C(=O)N[C@@H](C)C(=O)NC(C)(C)C(=O)c2nnc(-c3ccccc3)o2)cc1
4 |  |  |  | 72 | < 10 |  |  | Cc1ccc(S(=O)(=O)N[C@@H](CC(=O)NCC(C)(C)C)C(=O)N[C@@H](C)C(=O)N[C@@H](CC(C)C)C(=O)c2nnc(-c3ccc(N(C)C)cc3)o2)cc1
5 |  |  |  | 96 | 470 (≈ 282 µg/mL) |  |  | Cc1ccc(S(=O)(=O)N[C@@H](CC(=O)NCC(C)(C)C)C(=O)N[C@@H](C)C(=O)N[C@H](/C=C/S(C)(=O)=O)CC(C)C)cc1
6 |  |  | 3 |  |  |  |  | CC(C)C[C@@H](/C=C/S(C)(=O)=O)NC(=O)[C@H](CO)NC(=O)[C@H](CCC(=O)OC(C)(C)C)NC(=O)OCc1ccccc1
7 |  |  |  | 28 | < 10 |  |  | Cc1cccc(S(=O)(=O)N[C@@H](CC(=O)NCC(C)(C)C)C(=O)N[C@@H](C)C(=O)N[C@@H](CC(C)C)C(=O)c2nnc(-c3ccccc3)o2)c1
8 |  |  |  |  |  | 18 | 0.046 | CC(C)C[C@@H](C#N)NC(=O)[C@H](CC(C)C)NC(=O)[C@H](CC(C)C)NC(=O)OCc1ccccc1
9 | 13 | 67 | 0.5 | 7 | 48 (≈ 28.9 µg/mL) |  |  | Cc1ccc(S(=O)(=O)N[C@@H](CCC(=O)OC(C)(C)C)C(=O)N[C@@H](C)C(=O)N[C@H](/C=C/S(C)(=O)=O)CC(C)C)cc1
10 | 29 | 36 | 2 | 52 | < 10 |  |  | CC[C@H](C)[C@H](NC(=O)OCc1ccccc1)C(=O)N[C@@H](CCC(=O)OC(C)(C)C)C(=O)N[C@@H](C)C(=O)N[C@H](/C=C/S(C)(=O)=O)CC(C)C
11 | 18 | 7.1 |  | 20 |  |  |  | CC[C@H](C)[C@H](NC(=O)OCc1ccccc1)C(=O)N[C@@H](CCCC(=O)OC(C)(C)C)C(=O)N[C@@H](C)C(=O)N[C@H](/C=C/S(C)(=O)=O)CC(C)C
12 | 27 | 9 |  |  |  |  |  | CC[C@H](C)[C@H](NC(=O)OCc1ccccc1)C(=O)N[C@@H](Cc1ccccc1)C(=O)N[C@@H](C)C(=O)N[C@H](/C=C/S(C)(=O)=O)CC(C)C
13 |  |  | 1.75 |  |  |  |  | CC(C)C[C@@H](/C=C/S(C)(=O)=O)NC(=O)[C@H](C)NC(=O)[C@H](CCC(=O)OC(C)(C)C)NC(=O)c1ccccc1
14 | 5.8 | 0.7 | 0.8 | 66 |  |  |  | CC[C@H](C)[C@H](NC(=O)OCc1ccccc1)C(=O)N[C@@H](CC(C)C)C(=O)N[C@@H](C)C(=O)N[C@H](/C=C/S(C)(=O)=O)CC(C)C
15 | 1.6 | 6.9 |  |  |  |  |  | CC(=O)N[C@@H](CCc1ccccc1)C(=O)N[C@@H](CC(C)C)C(=O)N[C@@H](C)C(=O)N[C@H](/C=C/S(C)(=O)=O)CC(C)C
16 |  |  |  | 0 |  |  |  | CC[C@H](C)[C@H](NC(=O)OCc1ccccc1)C(=O)N[C@@H](CCC(=O)OC1CCCCC1)C(=O)N[C@@H](C)C(=O)N[C@H](/C=C/S(C)(=O)=O)CC(C)C
17 | 23 | 13 |  |  |  |  |  | CC[C@H](C)[C@H](NC(=O)OCc1ccccc1)C(=O)N1CCC[C@H]1C(=O)N[C@@H](C)C(=O)N[C@H](/C=C/S(C)(=O)=O)CC(C)C
18 | 20 | 3 | 6.5 | 1 | < 10 |  |  | CC(C)C[C@@H](/C=C/S(C)(=O)=O)NC(=O)[C@H](C)NC(=O)[C@H](CCC(=O)OC(C)(C)C)NC(=O)OCc1ccccc1
19 | > 150 | 21 |  |  |  |  |  | CC(C)C[C@@H](/C=C/S(C)(=O)=O)NC(=O)CNC(=O)[C@H](CCC(=O)OC(C)(C)C)NC(=O)OCc1ccccc1
20 |  |  |  | 100 | 500 (≈ 307 µg/mL) |  |  | Cc1ccc(S(=O)(=O)N[C@@H](CC(=O)NCC(C)(C)C)C(=O)NC(C)(C)C(=O)N[C@H](/C=C/S(C)(=O)=O)CC(C)C)cc1

Row | IC50 [1] [µM] | IC50 [2] [µM] | IC50 [3] [µM] | remaining at 2 h [4] [%] | solubility [5] [µM] | Ki [1] [µM] | Ki [2] [µM] | Compound
21 | > 150 | 12 |  |  |  |  |  | CC(=O)N[C@@H](CCc1ccccc1)C(=O)N[C@@H](CC(C)C)C(=O)NCC(=O)N[C@H](/C=C/S(C)(=O)=O)CC(C)C
22 |  |  | 0.5 | 1 | < 10 |  |  | CC(C)C[C@@H](/C=C/S(C)(=O)=O)NC(=O)[C@H](C)NC(=O)[C@H](CCC(=O)OC(C)(C)C)NC(=O)C(c1ccccc1)c1ccccc1
23 | > 150 | 12 |  |  |  |  |  | CC[C@H](C)[C@H](NC(=O)OCc1ccccc1)C(=O)N[C@@H](CS(=O)(=O)Cc1ccccc1)C(=O)N[C@@H](C)C(=O)N[C@H](/C=C/S(C)(=O)=O)CC(C)C
24 |  |  |  | 79 | 37 (≈ 25.9 µg/mL) | 44 | 8.1 | COC[C@H](NC(=O)[C@H](CC(=O)NCC(C)(C)C)NS(=O)(=O)c1ccc(C)cc1)C(=O)N[C@@H](CC(C)C)C(=O)c1nnc(-c2ccccc2)o1
25 | 0.85 | 0.15 | 3 | 100 |  |  |  | CC(=O)N[C@@H](CCc1ccccc1)C(=O)N[C@@H](CC(C)C)C(=O)N[C@@H](Cc1ccccc1)C(=O)N[C@H](/C=C/S(C)(=O)=O)CC(C)C
26 |  |  | 3.25 |  |  |  |  | CC[C@H](C)[C@H](NC(=O)OCc1ccccc1)C(=O)N[C@@H](CC(=O)OC(C)(C)C)C(=O)N[C@@H](C)C(=O)N[C@H](/C=C/S(C)(=O)=O)CC(C)C
27 | 38 | 35 | 0.45 | 83 |  |  |  | CC[C@H](C)[C@H](NC(=O)OCc1ccccc1)C(=O)N[C@@H](COCc1ccccc1)C(=O)N[C@@H](C)C(=O)N[C@H](/C=C/S(C)(=O)=O)CC(C)C
28 |  |  | 0.55 | 83 | 20 (≈ 14.2 µg/mL) |  |  | CC[C@H](C)[C@H](NC(=O)OCc1ccccc1)C(=O)N[C@@H](CCC(=O)NC(C)(C)CC)C(=O)N[C@@H](C)C(=O)N[C@H](/C=C/S(C)(=O)=O)CC(C)C
29 | 54 | 48 |  |  |  |  |  | CC[C@H](C)[C@H](NC(=O)OCc1ccccc1)C(=O)N[C@@H](CCC(N)=O)C(=O)N[C@@H](C)C(=O)N[C@H](/C=C/S(C)(=O)=O)CC(C)C
30 |  |  | 0.2 | 90 | < 10 |  |  | CC[C@H](C)[C@H](NC(=O)OCc1ccccc1)C(=O)N[C@@H](CC(=O)NCC(C)(C)C)C(=O)N[C@@H](C)C(=O)N[C@H](/C=C/S(C)(=O)=O)CC(C)C
31 | 77 | 170 | 7.5 |  |  |  |  | CC(=O)N[C@@H](CCC(=O)OC(C)(C)C)C(=O)N[C@@H](C)C(=O)N[C@H](/C=C/S(C)(=O)=O)CC(C)C
32 |  |  |  | 86 | 13 (≈ 8.69 µg/mL) | 72 | 39 | Cc1ccc(S(=O)(=O)N[C@@H](CC(=O)NCC(C)(C)C)C(=O)N[C@@H](C)C(=O)N[C@@H](CC(C)C)C(=O)c2nnc(-c3ccccc3)o2)cc1
33 | 140 | 13 |  |  |  |  |  | CC[C@H](C)[C@H](NC(=O)OCc1ccccc1)C(=O)N[C@@H](CS(C)(=O)=O)C(=O)N[C@@H](C)C(=O)N[C@H](/C=C/S(C)(=O)=O)CC(C)C
34 | > 150 | 41 | 3000 | 89 |  |  |  | CC[C@H](C)[C@H](NC(=O)OCc1ccccc1)C(=O)N[C@@H](CCC(=O)NC(C)C)C(=O)N[C@@H](C)C(=O)N[C@H](/C=C/S(C)(=O)=O)CC(C)C
35 | > 150 | 77 |  |  |  |  |  | CC(=O)N[C@@H](CCc1ccccc1)C(=O)N[C@@H](CC(C)C)C(=O)N[C@H](C)C(=O)N[C@H](/C=C/S(C)(=O)=O)CC(C)C
36 | 51 | 3.3 | 5000 | 89 | 57 (≈ 39.6 µg/mL) |  |  | CC[C@H](C)[C@H](NC(=O)OCc1ccccc1)C(=O)N[C@@H](CCC(=O)NC(C)(C)C)C(=O)N[C@@H](C)C(=O)N[C@H](/C=C/S(C)(=O)=O)CC(C)C
37 | 41 | 10 | 0.6 | 22 | < 10 |  |  | CC[C@H](C)[C@H](NC(=O)OCc1ccccc1)C(=O)N[C@@H](CCc1ccccc1)C(=O)N[C@@H](C)C(=O)N[C@H](/C=C/S(C)(=O)=O)CC(C)C
38 |  |  | 0.375 |  |  |  |  | CC[C@H](C)[C@H](NC(=O)OCc1ccccc1)C(=O)N[C@@H](CCC(=O)OC(C)(C)C)C(=O)N[C@@H](C)C(=O)N[C@H](C=O)CC(C)C (Cbz-IE(OtBu)AL-aldehyde)
39 |  |  | 0.6 |  |  | 0.012 |  | CC(C)C[C@@H](C=O)NC(=O)[C@H](CC(C)C)NC(=O)[C@H](CC(C)C)NC(=O)OCc1ccccc1 [MG-132] (Cbz-Leu-Leu-Leu-aldehyde)
